Assay results taken from patent US12616203B2, “Use of 3-isoxazolidinones compounds as selective herbicides” (FMC Corporation, priority 2014, dated 2026).
Like-named read-outs stand apart in the source and are kept apart here.

Tests used:
weeds; Wheat and Barley = assay: Ex41 POST greenhouse; type: in vivo; conditions: rate in the words
Method: (§1) Treatments were applied to wheat and barley crops.
(§2) Nonionic surfactant was added at 0.5% v/v in all treatments. Treatments were applied to wheat (5.5″), barley (5″), wild oat (5.5″), common chickweed (2″), wild buckwheat (3″), and common lambsquarters (2″). All plant species were direct seeded into 3″ plastic pots using metro-mix as growth media and pots were watered well before application and watered 24 h after application. Plants were watered and fertilized routinely after treatment application. Each treatment was replicated four times.

Barley [1] = type: in vivo; conditions: 14 DAT, POST
Method: as §1, §2

wheat [2] = type: in vivo; conditions: 14 DAT, POST
Method: as §1, §2

Annual bluegrass = assay: Ex34 PRE 2,4-DC + napropamide, % control, Colby; type: in vivo, Poa annua; conditions: 28 DAT
From the text: (§3) Thereafter flats were watered and fertilized routinely.

Common lambsquarters = assay: Ex34 PRE 2,4-DC + napropamide, % control, Colby; type: in vivo, Chenopodium album; conditions: 28 DAT
From the text: as §3

weeds; canola = assay: Ex34 PRE greenhouse; type: in vivo; conditions: rate in the words
From the text: as §3

Blackgrass = assay: Ex34 PRE 2,4-DC + napropamide, % control, Colby; type: in vivo, Alopecurus myosuroides; conditions: 28 DAT
From the text: as §3

Wild buckwheat = assay: Ex34 PRE 2,4-DC + napropamide, % control, Colby; type: in vivo, Polygonum convolvulus; conditions: 28 DAT
From the text: as §3

Littleseed canarygrass = assay: Ex34 PRE 2,4-DC + napropamide, % control, Colby; type: in vivo, Phalaris minor; conditions: 28 DAT
From the text: as §3

weeds = assay: Ex18 PRE greenhouse; type: in vivo; conditions: weed and rate in the words
From the text: Additional treatments included application of metazachlor (Butisan®, 43.1%) at 750 g ai/ha, napropamide (Devrinol DF®, 50%) at 1260 g ai/ha, and dimethachlor (Teridox®, 48%) at 1000 g ai/ha. […] Treatments were applied just after the seeding of annual bluegrass, cheat, wild oat, quackgrass, field violet, blackgrass, littleseed canarygrass, silky windgrass, yellow foxtail, and goosegrass. […] Flats were watered and fertilized routinely after treatment application. Each treatment was replicated three times.

Sorghum = assay: Ex46 PRE sorghum injury 7, 14, 21, 28 DAT; conditions: rate in the words
Method: Treatments were applied to sorghum at the time of planting using Pennington soil. Each treatment was replicated four times. Soil was watered before and after application for herbicide activation. Plants were watered and fertilized routinely. […] Visual percent crop injury was recorded at 7, 14, 21, and 28 days after treatment using a scale of 0 (no injury) to 100 (complete plant death).

[3] = tested on: weeds; sweet corn, yellow corn, and sorghum; assay: Ex31 PRE greenhouse; type: in vivo; conditions: weed and rate in the words
From the text: Flats were watered and fertilized routinely after treatment application.

velvetleaf (VL) = assay: Ex5 PRE greenhouse, % control; type: in vivo, Abutilon theophrasti; conditions: 28 DAT, g ai/ha by row: r10-26 2,4-DC 50/100/200 (3 rows each) + mesotrione 25/50/100 (cycling)
Method: (§4) Test compositions containing 2,4-DC Example 1C and mesotrione (Callisto® Herbicide, 40% active ingredient, Syngenta) and mixtures of 2-(2,4-dichlorophenyl)methyl-4,4-dimethyl-3-isoxazolidinone and mesotrione, were diluted with water to provide the appropriate test rate concentration.
(§5) The test weeds were barnyardgrass (BG) (Echinochloa crus-galli), jimsonweed (PA) (Datura stramonium), velvetleaf (VL) (Abutilon theophrasti), common cockelbur (CC) (Xanthium strumarium) and hairy beggarticks (HB) (Bidens pilosa). Crops included in the evaluation were field corn and sorghum.
(§6) For pre-emergence testing, four disposable fiber flats (6″ by 10″) for each rate of application of each herbicide solution were filled with top soil, to which seeds of each species were planted in furrows made by a template pressed on the top of the soil. The furrows with seeds were covered with soil and were watered well before application of the test compounds. Flats designated for treatment were placed in a spray chamber having a static platform and a movable sprayer and height of the spray nozzle was 10.5 inches above the soil level. Once the sprayer was calibrated using water for spray volume of 30 gallons per acre, flats were sprayed with sprayer at a speed to receive a coverage equivalent of 30 gallons per acre.
(§7) The application rates are those shown in Table 4 below for the individual herbicidal solutions and the herbicide compositions of the present invention. The pre-emergence flats were immediately placed in the greenhouse and watered lightly after treatment. Thereafter they were regularly watered and fertilized for the duration of the test. The control of weeds and injury to crops was evaluated in each experimental test at 28 days after treatment (DAT). […] Percent control was determined by a method similar to the 0 to 100 rating system disclosed in “Research Methods in Weed Science,” 2nd ed., B. Truelove, Ed.; Southern Weed Science Society; Auburn University, Auburn, Ala., 1977.

jimsonweed = assay: Ex5 PRE greenhouse, % control; type: in vivo, Datura stramonium; conditions: 28 DAT, g ai/ha by row: r10-26 2,4-DC 50/100/200 (3 rows each) + mesotrione 25/50/100 (cycling)
Method: as §4, §5, §6, §7

weeds; Sugarcane (CTC20) = assay: Ex23 PRE greenhouse; conditions: 28 DAT, weed and rate in the words
Method: (Ipomoea spp). The tested crop in this study was Sugarcane (CTC20).
Sugarcane was direct seeded into 6″ plastic pots using 3-4″ sugarcane setts, oriented bud up, with bud leaf shield removed. 2,4 DC and sulfentrazone were applied alone or combined as tank-mix at each rate mentioned below. […] Treatments were replicated 3 times. […] Thereafter flats were watered and fertilized routinely. […] Visual percent sugarcane injury was recorded at 21 and 28 DAT, using a scale of 0 (no injury, observed as bleaching, stunting or necrosis) to 100 (complete plant death).

barnyardgrass (BG) = assay: Ex5 PRE greenhouse, % control; type: in vivo, Echinochloa crus-galli; conditions: 28 DAT, g ai/ha by row: r10-26 2,4-DC 50/100/200 (3 rows each) + mesotrione 25/50/100 (cycling)
Method: as §4, §5, §6, §7

[4] = tested on: weeds; Sugarcane (var. CTC 20); assay: Ex17 PRE greenhouse; type: in vivo; conditions: weed and rate in the words
Method: In this example a study was conducted to determine weed efficacy and sugarcane injury when 2,4 DC or isoxaflutole are applied either alone or tank-mix as preemergence against the weeds: Ivyleaf morningglory (Ipomoea hederacea, IPOHE), hairy beggartickss (Bidens pilosa, BIDPI), yellow nutsedge (Cyperus esculentus, CYPES), large crabgrass (Digitaria sanguinalis, DIGSA), and redroot pigweed (Amaranthus retroflexus, AMARE). The crop tested in this study was Sugarcane (var. CTC 20).
To determine weed efficacy and sugarcane selectivity, 2,4 DC (SC 36%) and isoxaflutole (Balance Flexx®, 20%) were applied PRE either alone or as tank-mix partners at rates mentioned below. 2,4 DC was applied at 500, 750, and 1000 g ai/ha while isoxaflutole was applied at 80, 100, and 120 g ai/ha. […] Treatments were applied PRE to sugarcane (var. CTC 20), ivyleaf morningglory, hairy beggarticks, yellow nutsedge, large crabgrass, and redroot pigweed. Weed species were planted in fiber flats (6″×10″) containing Pennington soil. Soil was watered before application and watered lightly after application. Flats were watered and fertilized routinely after treatment application.

[5] = tested on: sweet corn, yellow corn, and sorghum; conditions: PRE; crop and rate in the words
From the text: Treatments were also applied ot sweet corn, yellow corn, and sorghum.
Treatments were applied before the emergence of Jimsonweed, velvetleaf, hairy beggarticks, common cocklebur, barnyardgrass, sweet corn, yellow corn, and sorghum. Plant species were planted in fiber flats (6″×10″) containing Pennington soil and flats were watered well before application and watered lightly after application. Flats were watered and fertilized routinely after treatment application.

weeds; barley and wheat = assay: Ex40 POST greenhouse; type: in vivo; conditions: rate in the words
Method: (§8) Treatments were applied to barley and wheat crops.
(§9) Non-ionic surfactant (NIS) was added to all treatments at 0.5% v/v. All plant species were direct seeded into 3″ plastic pots using metro-mix as growth media. At treatment common lambsquarters was 1.75″, common chickweed was 2″, wild mustard was 2.25″, wild oat was 5.5″, wild buckwheat was 2-5″, Italian ryegrass was 2-3″, wheat was 5.5″ and barley was 4.5″ in height. Plants were watered well before application and not watered 24 h after application. Plants were watered and fertilized routinely after treatment application. Each treatment was replicated four times. Treated flats were placed in randomized block design in the greenhouse.

Barley [6] = assay: Ex40 POST 2,4-DC + metsulfuron-methyl, crop injury 7 DAT; type: in vivo; conditions: POST
Method: as §8, §9

wheat [7] = assay: as above; type: in vivo; conditions: POST
Method: as §8, §9

Italian ryegrass = assay: Ex36 POST 2,4-DC + metsulfuron-methyl, % control 28 DAT, Colby; type: in vivo, Lolium perenne L. ssp. multiflorum
From the text: Crops screened were wheat and barley.

[8] = thifensulfuron-methyl 50 g ai/ha
[9] = thifensulfuron-methyl 75 g ai/ha
[10] = thifensulfuron-methyl 100 g ai/ha
[11] = r28-30 2,4-DC 50/100/200, r31-33 mesotrione 25/50/100, 25 g ai/ha
[12] = r28-30 2,4-DC 50/100/200, r31-33 mesotrione 25/50/100, 50 g ai/ha
[13] = r28-30 2,4-DC 50/100/200, r31-33 mesotrione 25/50/100, 100 g ai/ha

COC(=O)c1sccc1S(=O)(=O)NC(=O)Nc1nc(C)nc(OC)n1 [Thifensulfuron-methyl, thifensulfuron-methyl, reference compound]
weed control / crop safety in words (weeds; Wheat and Barley): alone controlled all weeds except wild oat, and was safe on both crops | % crop injury for Thifensulfuron-M alone (Barley [1]; [8]): 2% | % crop injury for Thifensulfuron-M alone (Barley [1]; [9]): 2% | % crop injury for Thifensulfuron-M alone (Barley [1]; [10]): 2% | % crop injury for Thifensulfuron-M alone (wheat [2]; [8]): 0% | % crop injury for Thifensulfuron-M alone (wheat [2]; [9]): 0% | % crop injury for Thifensulfuron-M alone (wheat [2]; [10]): 1%

CCN(CC)C(=O)C(C)Oc1cccc2ccccc12 (stereo not drawn) [napropamide, reference compound]
Y (Annual bluegrass; Napropamide alone 315 g ai/ha): 1% | Y (Annual bluegrass; Napropamide alone 630 g ai/ha): 77% | Y (Annual bluegrass; Napropamide alone 1260 g ai/ha): 92% | Y (Common lambsquarters; Napropamide alone 315 g ai/ha): 50% | Y (Common lambsquarters; Napropamide alone 630 g ai/ha): 73% | Y (Common lambsquarters; Napropamide alone 1260 g ai/ha): 91% | weed control / crop safety in words (weeds; canola): alone at 630 g controlled littleseed canarygrass, at 1260 g controlled common lambsquarters, annual bluegrass and Italian ryegrass and was safe on canola at all rates | Y (Blackgrass; Napropamide alone 315 g ai/ha): 5% | Y (Blackgrass; Napropamide alone 630 g ai/ha): 7% | Y (Blackgrass; Napropamide alone 1260 g ai/ha): 15% | Y (Wild buckwheat; Napropamide alone 315 g ai/ha): 23% | Y (Wild buckwheat; Napropamide alone 630 g ai/ha): 23% | Y (Wild buckwheat; Napropamide alone 1260 g ai/ha): 38% | Y (Littleseed canarygrass; Napropamide alone 315 g ai/ha): 50% | Y (Littleseed canarygrass; Napropamide alone 630 g ai/ha): 87% | Y (Littleseed canarygrass; Napropamide alone 1260 g ai/ha): 100% | weed control in words (weeds): controlled all weeds except blackgrass

CC1(C)CON(Cc2cc(Cl)ccc2Cl)C1=O [2,5-DC, 2-(2,5-dichlorophenyl)methyl-4,4-dimethyl-3-isoxazolidinone]
sorghum safety in words (Sorghum): safe on sorghum at rates ranging from 31 to 125 g ai/ha irrespective of rating timings

CS(=O)(=O)c1ccc(C(=O)C2C(=O)CCCC2=O)c([N+](=O)[O-])c1 [mesotrione]
weed control in words [3]: alone gave control of velvetleaf and Jimsonweed at medium or highest rate while it controlled cocklebur and hairy beggarstick at the highest rate only | % Control VL (velvetleaf (VL); [11]): 73% | % Control VL (velvetleaf (VL); [12]): 87% | % Control VL (velvetleaf (VL); [13]): 100% | % Control JW (jimsonweed; [11]): 68% | % Control JW (jimsonweed; [12]): 90% | % Control JW (jimsonweed; [13]): 93% | weed control in words (weeds; Sugarcane (CTC20)): at 105 g controlled all weeds except morningglory | % Control BG (barnyardgrass (BG); [11]): 48% | % Control BG (barnyardgrass (BG); [12]): 61% | % Control BG (barnyardgrass (BG); [13]): 73% | weed control in words [4]: at 105 g controlled all weeds except ivyleaf morningglory | crop safety in words [5]: alone was safe on sweet corn and yellow corn at all three rates; safe on sorghum at 25 and 50 g

COC(=O)c1ccccc1S(=O)(=O)NC(=O)Nc1nc(C)nc(OC)n1 [Metsulfuron-methyl, metsulfuron-methyl, reference compound]
weed control / crop safety in words (weeds; barley and wheat): alone controlled wild buckwheat, common chickweed, wild mustard, and common lambsquarters at all rates and was safe on both crops at all rates | Y (% crop injury, metsulfuron-methyl alone) (Barley [6]; metsulfuron-methyl 2 g ai/ha): 5% | Y (% crop injury, metsulfuron-methyl alone) (Barley [6]; metsulfuron-methyl 3 g ai/ha): 7% | Y (% crop injury, metsulfuron-methyl alone) (Barley [6]; metsulfuron-methyl 4 g ai/ha): 9% | Y (% crop injury, metsulfuron-methyl alone) (wheat [7]; metsulfuron-methyl 2 g ai/ha): 1% | Y (% crop injury, metsulfuron-methyl alone) (wheat [7]; metsulfuron-methyl 3 g ai/ha): 0% | Y (% crop injury, metsulfuron-methyl alone) (wheat [7]; metsulfuron-methyl 4 g ai/ha): 2% | Y (Italian ryegrass; metsulfuron-methyl alone 6 g ai/ha): 6% | Y (Italian ryegrass; metsulfuron-methyl alone 9 g ai/ha): 18% | Y (Italian ryegrass; metsulfuron-methyl alone 12 g ai/ha): 16%
